In article PMC4579270, “Identification and Characterization of an Irreversible Inhibitor of CDK2” (Chemistry & Biology, 2015):

How the values were obtained:
Assay in all cases: Dundee protein kinase screen
Format in all cases: biochemical
TTK = biological target: T1, TTK (Homo sapiens, UniProt P33981); details: read-out: %Remaining activity at 1µM NU6300
T1 sequence (P33981 1-857): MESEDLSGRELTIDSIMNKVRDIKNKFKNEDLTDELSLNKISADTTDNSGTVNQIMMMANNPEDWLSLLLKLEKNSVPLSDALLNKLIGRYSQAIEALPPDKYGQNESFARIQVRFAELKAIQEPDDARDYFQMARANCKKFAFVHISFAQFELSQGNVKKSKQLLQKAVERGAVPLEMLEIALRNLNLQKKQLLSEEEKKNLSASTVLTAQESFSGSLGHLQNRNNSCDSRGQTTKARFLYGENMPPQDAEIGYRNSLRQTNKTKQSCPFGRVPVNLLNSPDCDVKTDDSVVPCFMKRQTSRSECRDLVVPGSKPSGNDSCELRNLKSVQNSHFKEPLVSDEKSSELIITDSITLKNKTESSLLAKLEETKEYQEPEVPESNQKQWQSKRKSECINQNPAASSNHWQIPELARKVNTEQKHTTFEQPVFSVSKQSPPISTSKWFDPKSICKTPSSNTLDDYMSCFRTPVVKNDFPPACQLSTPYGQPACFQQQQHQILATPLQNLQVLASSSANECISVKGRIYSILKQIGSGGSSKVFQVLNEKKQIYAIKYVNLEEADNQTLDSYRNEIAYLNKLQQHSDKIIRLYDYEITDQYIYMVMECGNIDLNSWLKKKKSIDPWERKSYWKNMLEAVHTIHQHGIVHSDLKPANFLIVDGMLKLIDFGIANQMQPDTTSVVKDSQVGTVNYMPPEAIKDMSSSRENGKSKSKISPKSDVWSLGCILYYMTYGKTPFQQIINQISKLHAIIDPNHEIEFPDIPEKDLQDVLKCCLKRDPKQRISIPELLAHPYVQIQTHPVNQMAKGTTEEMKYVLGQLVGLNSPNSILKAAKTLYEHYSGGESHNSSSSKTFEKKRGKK
Procedure: (§1) Prior to determining its cellular activity, we carried out a screen to assess its selectivity against a panel of 131 protein kinases under conditions that would not distinguish between a reversible or irreversible mode of action. […] These 13 kinases and 29 additional kinases, selected for their known sensitivity to other inhibitors within the purine series, were then tested in a modified screening format in which the assay was repeated following a 4-hr pre-incubation (Table S3B). […] However, conformational flexibility around the active site may promote such an interaction with a residue from another part of the structure ([Martin et al., 2012]).
(§2) Table S3, Related to Figure 4. NCL-0006300 protein kinase selectivity. (A) NU6300 was tested at a single concentration of 1µM against 131 protein kinases present in a Dundee protein kinase screen (Bain et al., 2007). Values given are % activity remaining and are the average of duplicate measurements: 0-25% (red), 26-50% (yellow), 51-80% […]
(§3) (black) and above 81% (green). […]

MNK2 = MNK2 (Homo sapiens, UniProt Q9HBH9); details: MNK2, 1µM; read-out: %Remaining activity at 1µM NU6300
Procedure: as §1, §2, §3

OSR1 = OSR1 (Homo sapiens, UniProt O95747); details: OSR1, 1µM; read-out: %Remaining activity at 1µM NU6300
Procedure: as §1, §2, §3

MST4 = MST4 (Homo sapiens, UniProt Q9P289); details: MST4, 1µM; read-out: %Remaining activity at 1µM NU6300
Procedure: as §1, §2, §3

PIM1 = PIM1 (Homo sapiens, UniProt P11309); details: PIM1, 1µM; read-out: %Remaining activity at 1µM NU6300
Procedure: as §1, §2, §3

MPSK1 = MPSK1 (Homo sapiens, UniProt O75716); details: MPSK1, 1µM; read-out: %Remaining activity at 1µM NU6300
Procedure: as §1, §2, §3

PKCα = PKCα (Homo sapiens, UniProt P17252); details: read-out: %Remaining activity at 1µM NU6300
Procedure: as §1, §2, §3

RSK2 = RSK2 (Homo sapiens, UniProt P51812); details: RSK2, 1µM; read-out: %Remaining activity at 1µM NU6300
Procedure: as §1, §2, §3

TLK1 = TLK1 (Homo sapiens, UniProt Q9UKI8); details: TLK1, 1µM; read-out: %Remaining activity at 1µM NU6300
Procedure: as §1, §2, §3

PKD1 = PKD1 (Homo sapiens, UniProt Q15139); details: PKD1, 1µM; read-out: %Remaining activity at 1µM NU6300
Procedure: as §1, §2, §3

STK33 = STK33 (Homo sapiens, UniProt Q9BYT3); details: STK33, 1µM; read-out: %Remaining activity at 1µM NU6300
Procedure: as §1, §2, §3

SIK2 = SIK2 (Homo sapiens, UniProt Q9H0K1); details: SIK2, 1µM; read-out: %Remaining activity at 1µM NU6300
Procedure: as §1, §2, §3

PDK1 = biological target: T2, PDK1 (Homo sapiens, UniProt O15530); details: PDK1, 1µM; read-out: %Remaining activity at 1µM NU6300
T2 sequence (O15530 1-556): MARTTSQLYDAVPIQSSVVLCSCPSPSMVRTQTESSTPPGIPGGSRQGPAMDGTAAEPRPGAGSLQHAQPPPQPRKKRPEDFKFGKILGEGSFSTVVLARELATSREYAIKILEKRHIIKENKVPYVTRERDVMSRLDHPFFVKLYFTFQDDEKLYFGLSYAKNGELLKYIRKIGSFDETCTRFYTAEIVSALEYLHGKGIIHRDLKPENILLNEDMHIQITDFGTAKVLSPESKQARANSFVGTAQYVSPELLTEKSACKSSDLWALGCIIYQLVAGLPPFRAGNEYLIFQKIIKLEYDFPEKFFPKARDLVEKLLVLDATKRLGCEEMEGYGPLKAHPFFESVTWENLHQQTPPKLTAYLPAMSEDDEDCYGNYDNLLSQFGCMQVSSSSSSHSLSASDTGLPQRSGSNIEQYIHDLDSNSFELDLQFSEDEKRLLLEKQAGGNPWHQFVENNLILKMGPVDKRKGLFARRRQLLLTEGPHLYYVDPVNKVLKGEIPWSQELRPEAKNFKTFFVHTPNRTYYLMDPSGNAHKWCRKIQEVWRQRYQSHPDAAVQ
Procedure: as §1, §2, §3

PKCγ = PKCγ (Homo sapiens, UniProt P05129); details: read-out: %Remaining activity at 1µM NU6300
Procedure: as §1, §2, §3

PKBβ = PKBβ (Homo sapiens, UniProt P31751); details: read-out: %Remaining activity at 1µM NU6300
Procedure: as §1, §2, §3

Chain of RSK2 (P51812 whole entry): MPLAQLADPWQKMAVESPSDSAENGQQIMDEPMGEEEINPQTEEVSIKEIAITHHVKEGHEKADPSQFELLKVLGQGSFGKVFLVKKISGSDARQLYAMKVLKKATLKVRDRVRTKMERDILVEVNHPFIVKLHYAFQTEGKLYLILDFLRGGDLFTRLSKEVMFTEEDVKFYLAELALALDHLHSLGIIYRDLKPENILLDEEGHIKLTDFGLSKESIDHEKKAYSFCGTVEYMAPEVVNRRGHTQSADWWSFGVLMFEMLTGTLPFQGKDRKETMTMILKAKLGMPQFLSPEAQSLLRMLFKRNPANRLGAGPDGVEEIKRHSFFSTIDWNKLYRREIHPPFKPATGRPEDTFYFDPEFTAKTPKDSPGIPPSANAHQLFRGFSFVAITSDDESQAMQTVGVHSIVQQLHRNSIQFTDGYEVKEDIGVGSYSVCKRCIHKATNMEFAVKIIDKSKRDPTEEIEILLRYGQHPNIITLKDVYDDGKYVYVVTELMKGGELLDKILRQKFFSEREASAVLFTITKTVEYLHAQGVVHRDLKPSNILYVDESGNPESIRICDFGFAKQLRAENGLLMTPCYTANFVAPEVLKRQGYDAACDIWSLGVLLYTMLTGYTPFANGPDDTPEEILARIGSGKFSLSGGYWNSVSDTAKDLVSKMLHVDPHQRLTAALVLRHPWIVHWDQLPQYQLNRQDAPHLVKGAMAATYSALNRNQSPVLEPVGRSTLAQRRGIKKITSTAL
Chain of MNK2 (Q9HBH9 whole entry): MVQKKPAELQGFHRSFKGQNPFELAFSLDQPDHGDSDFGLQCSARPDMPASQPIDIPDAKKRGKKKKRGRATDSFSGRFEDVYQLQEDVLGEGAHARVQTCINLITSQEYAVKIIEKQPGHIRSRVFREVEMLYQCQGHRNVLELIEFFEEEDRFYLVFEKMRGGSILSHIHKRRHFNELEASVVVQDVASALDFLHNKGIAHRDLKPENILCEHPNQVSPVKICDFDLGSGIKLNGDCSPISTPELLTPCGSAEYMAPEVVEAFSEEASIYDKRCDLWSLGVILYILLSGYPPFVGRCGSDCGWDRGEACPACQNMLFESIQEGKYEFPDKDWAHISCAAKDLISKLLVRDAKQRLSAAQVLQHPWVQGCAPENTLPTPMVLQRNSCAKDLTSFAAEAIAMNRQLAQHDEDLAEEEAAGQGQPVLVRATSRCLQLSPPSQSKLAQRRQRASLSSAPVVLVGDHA
Chain of OSR1 (O95747 whole entry): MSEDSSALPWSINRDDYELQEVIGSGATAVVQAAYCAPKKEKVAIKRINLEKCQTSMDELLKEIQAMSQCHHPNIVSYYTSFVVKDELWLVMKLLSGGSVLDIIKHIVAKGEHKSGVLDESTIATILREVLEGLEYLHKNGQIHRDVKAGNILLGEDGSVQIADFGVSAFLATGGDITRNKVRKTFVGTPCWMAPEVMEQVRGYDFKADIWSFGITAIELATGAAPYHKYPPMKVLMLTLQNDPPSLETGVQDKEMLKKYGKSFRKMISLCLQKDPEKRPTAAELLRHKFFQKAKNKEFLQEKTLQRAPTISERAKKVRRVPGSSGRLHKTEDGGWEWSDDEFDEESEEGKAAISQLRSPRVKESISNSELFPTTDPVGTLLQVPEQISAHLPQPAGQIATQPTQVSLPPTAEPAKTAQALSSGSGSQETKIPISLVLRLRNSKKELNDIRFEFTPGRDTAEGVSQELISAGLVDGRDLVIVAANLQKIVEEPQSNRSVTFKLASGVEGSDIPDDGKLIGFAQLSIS
Chain of PKBβ (P31751 whole entry): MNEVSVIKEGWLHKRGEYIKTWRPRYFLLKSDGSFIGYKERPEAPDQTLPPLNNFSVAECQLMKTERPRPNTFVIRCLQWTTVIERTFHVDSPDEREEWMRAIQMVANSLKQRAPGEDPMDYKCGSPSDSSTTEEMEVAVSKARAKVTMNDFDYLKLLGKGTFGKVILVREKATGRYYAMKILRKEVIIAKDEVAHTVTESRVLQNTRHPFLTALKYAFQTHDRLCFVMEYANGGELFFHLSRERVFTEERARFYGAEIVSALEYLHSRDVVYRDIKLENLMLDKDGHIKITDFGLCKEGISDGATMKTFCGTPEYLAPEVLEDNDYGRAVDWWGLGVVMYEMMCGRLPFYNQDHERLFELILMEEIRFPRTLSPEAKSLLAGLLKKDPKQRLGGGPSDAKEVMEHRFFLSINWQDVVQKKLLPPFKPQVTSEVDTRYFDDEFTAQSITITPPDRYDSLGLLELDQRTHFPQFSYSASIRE
Chain of MST4 (Q9P289 whole entry): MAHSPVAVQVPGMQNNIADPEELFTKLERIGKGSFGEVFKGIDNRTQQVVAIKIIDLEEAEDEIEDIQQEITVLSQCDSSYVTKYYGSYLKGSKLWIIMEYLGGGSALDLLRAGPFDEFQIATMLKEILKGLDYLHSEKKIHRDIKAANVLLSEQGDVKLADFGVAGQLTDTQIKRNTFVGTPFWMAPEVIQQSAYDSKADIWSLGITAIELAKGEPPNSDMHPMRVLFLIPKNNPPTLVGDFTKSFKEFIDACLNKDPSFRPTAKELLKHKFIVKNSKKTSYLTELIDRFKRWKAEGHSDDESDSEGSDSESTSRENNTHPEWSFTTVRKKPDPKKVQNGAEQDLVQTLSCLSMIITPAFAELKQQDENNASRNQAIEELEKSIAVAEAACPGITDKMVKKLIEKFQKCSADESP
Chain of MPSK1 (O75716 whole entry): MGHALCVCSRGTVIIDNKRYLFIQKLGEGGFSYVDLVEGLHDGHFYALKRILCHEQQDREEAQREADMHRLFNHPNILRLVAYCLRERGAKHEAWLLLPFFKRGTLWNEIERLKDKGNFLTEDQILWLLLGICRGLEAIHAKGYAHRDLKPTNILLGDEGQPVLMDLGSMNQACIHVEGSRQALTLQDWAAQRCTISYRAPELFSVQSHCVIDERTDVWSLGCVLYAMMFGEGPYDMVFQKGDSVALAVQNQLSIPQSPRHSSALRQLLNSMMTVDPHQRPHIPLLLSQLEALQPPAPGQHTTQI
Chain of STK33 (Q9BYT3 whole entry): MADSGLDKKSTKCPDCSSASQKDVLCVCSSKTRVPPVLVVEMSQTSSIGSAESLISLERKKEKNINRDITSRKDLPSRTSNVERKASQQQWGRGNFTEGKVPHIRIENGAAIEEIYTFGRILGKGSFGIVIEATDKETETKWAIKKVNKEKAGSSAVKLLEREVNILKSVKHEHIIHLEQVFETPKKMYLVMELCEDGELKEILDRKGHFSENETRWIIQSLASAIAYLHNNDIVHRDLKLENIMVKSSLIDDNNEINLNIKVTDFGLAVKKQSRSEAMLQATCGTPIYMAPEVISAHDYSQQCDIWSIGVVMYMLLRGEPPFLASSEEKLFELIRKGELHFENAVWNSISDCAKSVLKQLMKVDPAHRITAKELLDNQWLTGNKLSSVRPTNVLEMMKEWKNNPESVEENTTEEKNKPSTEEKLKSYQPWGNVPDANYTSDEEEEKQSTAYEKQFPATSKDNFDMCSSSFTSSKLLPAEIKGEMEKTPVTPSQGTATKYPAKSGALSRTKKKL

## C=CS(=O)(=O)c1ccc(Nc2nc(OCC3CCCCC3)c3nc[nH]c3n2)cc1 [NU6300, 6-(cyclohexylmethoxy)-N-(4-(vinylsulfonyl)phenyl)-9H-purin-2-amine]
TTK
  remaining activity at 1 µM: 29%
MNK2
  remaining activity at 1 µM: 91%
OSR1
  remaining activity at 1 µM: 67%
MST4
  remaining activity at 1 µM: 39%
PIM1
  remaining activity at 1 µM: 84%
MPSK1
  remaining activity at 1 µM: 92%
PKCα
  remaining activity at 1 µM: 86%
RSK2
  remaining activity at 1 µM: 54%
TLK1
  remaining activity at 1 µM: 52%
PKD1
  remaining activity at 1 µM: 55%
STK33
  remaining activity at 1 µM: 59%
SIK2
  remaining activity at 1 µM: 22%
PDK1
  remaining activity at 1 µM: 29%
PKCγ
  remaining activity at 1 µM: 104%
PKBβ
  remaining activity at 1 µM: 89%
